Target: T1, SOS1 (Homo sapiens, UniProt Q07889)
T1 sequence (Q07889 1-1333): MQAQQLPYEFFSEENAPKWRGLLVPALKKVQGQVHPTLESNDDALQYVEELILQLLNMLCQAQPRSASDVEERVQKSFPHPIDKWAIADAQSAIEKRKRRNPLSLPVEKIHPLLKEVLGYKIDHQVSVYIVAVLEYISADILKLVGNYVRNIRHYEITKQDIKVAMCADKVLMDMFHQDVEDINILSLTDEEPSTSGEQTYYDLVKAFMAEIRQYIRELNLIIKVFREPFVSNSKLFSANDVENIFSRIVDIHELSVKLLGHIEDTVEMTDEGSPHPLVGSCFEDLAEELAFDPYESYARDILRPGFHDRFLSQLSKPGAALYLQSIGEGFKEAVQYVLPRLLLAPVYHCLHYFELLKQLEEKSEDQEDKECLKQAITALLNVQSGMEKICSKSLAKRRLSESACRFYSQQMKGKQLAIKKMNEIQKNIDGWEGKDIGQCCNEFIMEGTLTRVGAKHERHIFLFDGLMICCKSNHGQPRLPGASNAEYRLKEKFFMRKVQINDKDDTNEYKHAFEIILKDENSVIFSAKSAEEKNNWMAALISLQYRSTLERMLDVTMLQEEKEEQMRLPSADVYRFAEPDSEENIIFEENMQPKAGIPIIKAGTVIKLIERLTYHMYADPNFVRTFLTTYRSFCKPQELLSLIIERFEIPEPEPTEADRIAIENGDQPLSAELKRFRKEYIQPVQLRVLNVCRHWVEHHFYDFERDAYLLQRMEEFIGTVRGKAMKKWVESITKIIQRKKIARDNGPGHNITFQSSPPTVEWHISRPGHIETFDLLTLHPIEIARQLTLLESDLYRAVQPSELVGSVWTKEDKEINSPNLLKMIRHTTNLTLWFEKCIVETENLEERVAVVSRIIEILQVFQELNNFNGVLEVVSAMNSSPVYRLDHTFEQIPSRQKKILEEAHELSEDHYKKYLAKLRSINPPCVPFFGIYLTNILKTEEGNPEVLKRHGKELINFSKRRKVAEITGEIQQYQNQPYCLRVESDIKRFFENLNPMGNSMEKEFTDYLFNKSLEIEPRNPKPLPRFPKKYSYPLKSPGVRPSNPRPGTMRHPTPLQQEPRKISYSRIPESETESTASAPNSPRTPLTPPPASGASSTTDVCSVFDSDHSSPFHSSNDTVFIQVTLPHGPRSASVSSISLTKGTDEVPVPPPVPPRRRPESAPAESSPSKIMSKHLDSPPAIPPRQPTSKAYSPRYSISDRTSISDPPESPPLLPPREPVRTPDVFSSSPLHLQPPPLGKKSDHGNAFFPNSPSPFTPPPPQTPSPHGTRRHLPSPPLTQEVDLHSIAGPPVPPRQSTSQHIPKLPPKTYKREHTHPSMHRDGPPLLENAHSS
Experiment: biochemical

Compound | IC50
CNc1nnc(N[C@H](C)c2cccc(C(F)(F)F)c2C)c2cn(C3CC3)c(=O)cc12 [Example 52, (R)-6-cyclopropyl-4-((1-(2-methyl-3-(trifluoromethyl)phenyl)ethyl)amino)-1-(methylamino)pyrid o[3,4-d]pyridazin-7(6H)-one] | 5.7 nM
CCN1CCN(c2nnc(N[C@H](C)c3cccc(C(F)F)c3F)c3cn(C4CC(F)(F)C4)c(=O)cc23)CC1 [Example 98, (R)-6-(3,3-difluorocyclobutyl)-4-((1-(3-(difluoromethyl)-2-fluorophenyl)ethyl)amino)-1-(4-ethylpiperazin-1-yl)pyrido[3,4-d]pyridazin-7(6H)-one] | 4.3 nM
C[C@@H](Nc1nnc(N2CCN(C)CC2)c2cc(=O)n(N3CCOCC3)cc12)c1cccc(C(F)F)c1F [Example 110, (R)-4-((1-(3-(difluoromethyl)-2-fluorophenyl)ethyl)amino)-1-(4-methylpiperazin-1-yl)-6-morpholinopyrido[3 ,4-d]pyridazin-7(6H)-one] | 3.3 nM
CNc1nnc(N[C@H](C)c2cccc(C(F)F)c2F)c2cn(C3(C)CC3)c(=O)cc12.O=CO [Example 9, (R)-4-((1-(3-(difluoromethyl)-2-fluorophenyl)ethyl)amino)-1-(methylamino)-6-(1-methylcyclopropyl) pyrido[3,4-d]pyridazin-7(6H)-one formate] | 4.5 nM
C[C@@H](Nc1nnc(N2CCN(C)CC2)c2cc(=O)n(C3(C)CC3)cc12)c1cccc(C(F)F)c1F.O=CO [Example 80, (R)-4-((1-(3-(difluoromethyl)-2-fluorophenyl)ethyl)amino)-6-(1-methylcyclopropyl)-1-(4-methylpiperazin-1-yl)pyrido[3,4-d]pyridazin-7(6H)-one formate] | 4.5 nM
CCN1CCN(c2nnc(N[C@H](C)c3cccc(C(F)F)c3F)c3cn(C4CCC4)c(=O)cc23)CC1 [Example 112, (R)-6-cyclobutyl-4-((1-(3-(difluoromethyl)-2-fluorophenyl)ethyl)amino)-1-(4-ethylpiperazin-1-yl)pyrido[3,4-d]pyridazin-7(6H)-one] | 5 nM
C[C@@H](Nc1nnc(N2CCN(C(C)(C)C)CC2)c2cc(=O)n(C3(C)CC3)cc12)c1cccc(C(F)F)c1F.O=CO [Example 222, (R)-1-(4-(tert-butyl)piperazin-1-yl)-4-((1-(3-(difluoromethyl)-2-fluorophenyl)ethyl)amino)-6-(1-methylcyclopropyl) pyrido[3,4-d]pyridazin-7(6H)-one formate] | 5 nM
CCN1CCN(c2nnc(N[C@H](C)c3cccc(C(F)F)c3F)c3cn(C4(C)CC4)c(=O)cc23)CC1 [Example 216, (R)-4-((1-(3-(difluoromethyl)-2-fluorophenyl)ethyl)amino)-1-(4-ethylpiperazin-1-yl)-6-(1-methylcyclopropyl) pyrido[3,4-d]pyridazin-7(6H)-one] | 4.6 nM
C[C@@H](Nc1nnc(N2CCN(C3CCCC3)CC2)c2cc(=O)n(N3CCOCC3)cc12)c1cccc(C(F)F)c1F [Example 120, (R)-4-((1-(3-(difluoromethyl)-2-fluorophenyl)ethyl)amino)-1-(4-cyclopentylpiperazin-1-yl)-6-morpholinopyrido[3 ,4-d]pyridazin-7(6H)-one] | 4.1 nM
CC(C)Nc1nnc(N[C@H](C)c2cccc(C(F)F)c2F)c2cn(C3(C)CC3)c(=O)cc12.O=CO [Example 12, (R)-4-((1-(3-(difluoromethyl)-2-fluorophenyl)ethyl)amino)-1-(isopropylamino)-6-(1-methylcyclopropyl) pyrido[3,4-d]pyridazin-7(6H)-one formate] | 4.9 nM
CC(C)N1CCN(c2nnc(N[C@H](C)c3cccc(C(F)F)c3F)c3cn(C4(C)CC4)c(=O)cc23)CC1 [Example 217, (R)-4-((1-(3-(difluoromethyl)-2-fluorophenyl)ethyl)amino)-1-(4-isopropylpiperazin-1-yl)-6-(1-methylcyclopropyl) pyrido[3,4-d]pyridazin-7(6H)-one] | 4.6 nM
CCN1CCN(c2nnc(N[C@H](C)c3cccc(C(F)F)c3F)c3cn(N4CCOCC4)c(=O)cc23)CC1 [Example 109, (R)-4-((1-(3-(difluoromethyl)-2-fluorophenyl)ethyl)amino)-1-(4-ethylpiperazin-1-yl)-6-morpholinopyrido[3 ,4-d]pyridazin-7(6H)-one] | 4.2 nM
CNc1nnc(N[C@H](C)c2cccc(C(F)(F)F)c2C)c2cn(C3(C)CC3)c(=O)cc12 [Example 73, (R)-4-((1-(2-methyl-3-(trifluoromethyl)phenyl)ethyl)amino)-1-(methylamino)-6-(1-methylcyclopropyl) pyrido[3,4-d]pyridazin-7(6H)-one] | 4.4 nM
C[C@@H](Nc1nnc(N2CCN(C)CC2)c2cc(=O)n(C3CCC3)cc12)c1cccc(C(F)F)c1F [Example 88, (R)-6-cyclobutyl-4-((1-(3-(difluoromethyl)-2-fluorophenyl)ethyl)amino)-1-(4-methylpiperazin-1-yl)pyrido[3,4-d]pyridazin-7(6H)-one] | 4.5 nM
CC(C)N1CCN(c2nnc(N[C@H](C)c3cccc(C(F)F)c3F)c3cn(N4CCOCC4)c(=O)cc23)CC1 [Example 111, (R)-4-((1-(3-(difluoromethyl)-2-fluorophenyl)ethyl)amino)-1-(4-isopropylpiperazin-1-yl)-6-morpholinopyrido[3 ,4-d]pyridazin-7(6H)-one] | 4.4 nM
C[C@@H](Nc1nnc(N2CCN(C)CC2)c2cc(=O)n(C3CC3)cc12)c1cccc(C(F)F)c1F [Example 77] | 5.9 nM
